Measurements as given in doi:10.1101/2023.02.27.530254, “Large library docking for cannabinoid-1 receptor agonists with reduced side effects” (bioRxiv, 2024).
Several values for one entry are separate records, joined by “and”; a condition that tells them apart may be missing. Identical values can stand only once. Like-named read-outs stand apart in the source and are kept apart here.

Columns and labels:
C56BL/6 mice [1] = experiment: Acute thermal pain tests (tail flick, hot plate, Hargreaves); type: in vivo, mouse; settings: for tail flick latency of co-injection with morphine (3.0 mg/kg, i.p.) versus morphine alone: 0.05 and 0.1 mg/kg; for analgesic effect under CB1R knockout or AM251 (5.0 mg/kg) pre-treatment: tail flick assay; for lowest dose with significant analgesia (latencies above baseline): tail flick, hot plate and Hargreaves tests, i.p.
C56BL/6 mice [2] = experiment: Catalepsy test (vertical wire mesh); type: in vivo, mouse; settings: for cataleptic behavior: analgesic doses (0.2 or 0.5 mg/kg), 30 minutes or 1-hour post-injection; for concentration window between anti-allodynia or analgesia versus catalepsy and sedation, maximum: depending on the nociceptive behavior
Description: Thirty and 60 minutes after an i.p. injection of the compounds, mice were placed on a vertical wire mesh and the latency to move all four paws was recorded.

C56BL/6 mice [3] = experiment: Body temperature by telemetric probe; type: in vivo, mouse; settings: body temperature over 150 minutes
Description: Body temperature (BT) was measured using a telemetric probe device (HD-X10; Data Science International). Briefly, under anesthesia, the probe device was placed in the mouse abdomen and a subcutaneous tunnel was created from the neck to the abdominal skin, through which a catheter (connected to the probe) was pulled and then inserted into the left carotid artery. Three weeks later, the implanted mice were singly housed in a cage that was placed on top of the DSI receiver (for probe signal detection). […] Data were acquired using the Ponemah Telemetry acquisition software (DSI) and percent changes were presented relative to each mouse’s baseline.

hCB1 = hCB1 (Homo sapiens, UniProt P21554); experiment: bioSens-All ebBRET effector biosensor signaling profiling, HEK293; type: cell-based; design: host or cells: HEK293 (HEK293SL clone), transient; settings: for RE, relative efficacy: versus CP-55,940
hCB1, sequence (P21554 whole entry): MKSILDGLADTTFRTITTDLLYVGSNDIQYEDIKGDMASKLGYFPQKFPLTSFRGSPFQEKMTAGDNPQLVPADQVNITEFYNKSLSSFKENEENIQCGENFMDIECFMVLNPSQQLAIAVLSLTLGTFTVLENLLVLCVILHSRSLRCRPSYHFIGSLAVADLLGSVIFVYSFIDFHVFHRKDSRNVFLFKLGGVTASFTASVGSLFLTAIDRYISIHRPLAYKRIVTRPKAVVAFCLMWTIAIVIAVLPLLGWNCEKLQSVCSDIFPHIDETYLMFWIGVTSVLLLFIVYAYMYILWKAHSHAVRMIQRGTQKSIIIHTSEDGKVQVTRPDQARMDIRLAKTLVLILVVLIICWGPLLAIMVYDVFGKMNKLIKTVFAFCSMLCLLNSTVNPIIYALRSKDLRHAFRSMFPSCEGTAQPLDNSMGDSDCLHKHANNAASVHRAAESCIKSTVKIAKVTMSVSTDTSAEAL

hCB2 [4] = biological target: T1, hCB2 (Homo sapiens, UniProt P34972); experiment: as above; type: cell-based; design: host or cells: HEK293 (HEK293SL clone), transient; settings: for RE, relative efficacy: versus CP-55,940
T1 sequence (P34972 whole entry): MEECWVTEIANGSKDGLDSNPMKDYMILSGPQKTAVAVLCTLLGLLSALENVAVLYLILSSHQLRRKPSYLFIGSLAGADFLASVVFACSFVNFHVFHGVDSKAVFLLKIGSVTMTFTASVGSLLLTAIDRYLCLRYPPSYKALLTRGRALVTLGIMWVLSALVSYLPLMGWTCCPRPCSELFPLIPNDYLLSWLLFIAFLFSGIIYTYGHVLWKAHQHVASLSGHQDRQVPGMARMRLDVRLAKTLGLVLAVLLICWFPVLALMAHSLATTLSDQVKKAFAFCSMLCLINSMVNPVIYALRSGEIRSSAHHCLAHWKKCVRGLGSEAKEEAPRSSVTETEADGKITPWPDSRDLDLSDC

hCB2 [5] = biological target: T1, hCB2; experiment: TRUPATH BRET2 GoA dissociation assay, HEK293T; type: cell-based; design: expressed in transfected cells; host or cells: HEK293T (transient); settings: HEK-293T, read-out: hCB2 BRET2 + GoA Emax [95% CI]
Description: […]. GoA dissociation BRET2 assays were performed as previously described with minor modifications. In brief, HEK293T cells were co-transfected overnight with human CB2 receptor, GαoA-Rluc, Gβ3, and Gγ9-GFP2 constructs. After 18–24 hours, the transfected cells were seeded into poly-L-lysine-coated 384-well white clear-bottom cell culture plates at a density of 15,000–20,000 cells and incubated with DMEM containing 1% dialyzed FBS, 100 U mL−1 of penicillin and 100 μg ml−1 of streptomycin for another 24 hours. The next day, the medium was aspirated and washed once with 20 μL of assay buffer (1× HBSS, 20 mM HEPES, 0.1% BSA, pH 7.4). Then, 20 μL of drug buffer containing coelenterazine 400a (Nanolight Technology) at 5 μM final concentration was added to each well and incubated for 5 minutes, followed by the addition of 10 μL of 3X designated drug buffer for 5 minutes. Then, 10 μL of 4X final concentrations of ligands were added for 5 minutes. […] BRET ratio was computed as the ratio of the GFP2 emission to RLuc8 emission. […] Each experiment was performed in triplicate and functional IC50 values were determined from the mean of four independent experiments.

[6] = HEK293, read-out: hCB2 Barr2 + GRK2 Emax [95% CI]
[7] = HEK293, read-out: hCB2 Gi1 Emax [95% CI]
[8] = HEK293, read-out: hCB2 Gi2 Emax [95% CI]
[9] = HEK293, read-out: hCB2 GoB Emax [95% CI]
[10] = HEK293, read-out: hCB1 Barr2 + GRK2 Emax [95% CI]
[11] = HEK293, read-out: hCB1 G13 Emax [95% CI]
[12] = HEK293, read-out: hCB1 G15 Emax [95% CI]
[13] = HEK293, read-out: hCB1 Gi1 Emax [95% CI]
[14] = HEK293, read-out: hCB1 Gi2 Emax [95% CI]
[15] = HEK293, read-out: hCB1 GoB Emax [95% CI]
[16] = HEK293, read-out: hCB1 Gz Emax [95% CI]
[17] = hCB1 Barr2 + GRK2 pEC50 [95% CI], ßarrestin-2 PM recruitment sensor with GRK2
[18] = hCB1 G13 EC50 [95% CI], G13 sensor
[19] = hCB1 G15 pEC50 [95% CI], G15 sensor
[20] = hCB1 Gi1 pEC50 [95% CI], Gi1 sensor
[21] = hCB1 Gi2 EC50 [95% CI], Gi2 sensor
[22] = hCB1 GoB pEC50 [95% CI], GoB sensor
[23] = hCB1 Gz pEC50 [95% CI], Gz sensor
[24] = HEK293, read-out: hCB2 Gz Emax [95% CI]
[25] = hCB1 Gi1 EC50 [95% CI], Gi1 sensor
[26] = hCB1 GoB EC50 [95% CI], GoB sensor

## CCCCCCC(C)(C)c1ccc([C@@H]2C[C@H](O)CC[C@H]2CCCO)c(O)c1 [CP-55,940, reference compound]
C56BL/6 mice [1]; Hargreaves test
  dose with increased latencies: 0.2 mg/kg
C56BL/6 mice [1]; tail flick test
  dose with increased latencies: 0.5 mg/kg
C56BL/6 mice [2]; C56BL/6, mouse, in vivo, intraperitoneal
  dose at which catalepsy was recorded: 0.2 mg/kg
C56BL/6 mice [2]; mouse, in vivo
  window between analgesia and catalepsy: no window
C56BL/6 mice [3]
  hypothermia compared to baseline and vehicle: induced hypothermia
hCB1; HEK293, read-out: hCB1 Barr2 + GRK2 Emax [95% CI], ßarrestin-2 sensor with GRK2, normalized to CP-55,940
  Emax: 89%
hCB1; HEK293, read-out: hCB1 G13 Emax [95% CI], G13 sensor, normalized to CP-55,940
  Emax: 100%
hCB1; HEK293, read-out: hCB1 G15 Emax [95% CI], G15 sensor, normalized to CP-55,940
  Emax: 100%
hCB1; HEK293, read-out: hCB1 Gi1 Emax [95% CI], Gi1 sensor, normalized to CP-55,940
  Emax: 100%
hCB1; HEK293, read-out: hCB1 Gi2 Emax [95% CI], Gi2 sensor, normalized to CP-55,940
  Emax: 100%
hCB1; HEK293, read-out: hCB1 GoB Emax [95% CI], GoB sensor, normalized to CP-55,940
  Emax: 100%
hCB2 [4]; [6]
  Emax: 100%
hCB2 [4]; [7]
  Emax: 100%
hCB2 [4]; [8]
  Emax: 100%
hCB2 [4]; [9]
  Emax: 100%
hCB2 [5]
  Emax: 99%

## COC(=O)[C@@](C)(NC(=O)c1cc(C)n(-c2cccc(C(F)(F)F)c2)n1)c1cccs1 [‘1350]
C56BL/6 mice [1]
  tail flick latency of co-injection with morphine (3.0 mg/kg, i.p.) versus morphine alone: significantly longer tail flick latencies
  analgesic effect under CB1R knockout or AM251 (5.0 mg/kg) pre-treatment: completely blocked
  lowest dose with significant analgesia (latencies above baseline): 0.1 mg/kg
C56BL/6 mice [2]
  cataleptic behavior: did not induce cataleptic behavior
  concentration window between anti-allodynia or analgesia versus catalepsy and sedation, maximum: up to a twenty-fold
C56BL/6 mice [2]; mouse, in vivo
  concentration window between anti-allodynia or analgesia versus catalepsy and sedation, typical: five- to ten-fold
  dose at which catalepsy was recorded: > 1.0 mg/kg and 1 mg/kg
C56BL/6 mice [2]; tail-flick and hot-plate, 0.1 mg/kg vs 1 mg/kg highest tested dose
  window between anti-allodynia and catalepsy: at least a ten-fold
C56BL/6 mice [3]
  hypothermia compared to baseline and vehicle: induced hypothermia
hCB1; [10]
  Emax: 63%
hCB1; [11]
  Emax: 56%
hCB1; [12]
  Emax: 99%
hCB1; [13]
  Emax: 92%
hCB1; [14]
  Emax: 95%
hCB1; [15]
  Emax: 98%
hCB1; [16]
  Emax: 94%
hCB1; [17]
  EC50: 2.19 nM
hCB1; hCB1 G13
  RE, relative efficacy: 1.64
hCB1; [18]
  EC50: 0.83 nM
hCB1; hCB1 G15
  RE, relative efficacy: 1.14
hCB1; [19]
  EC50: 0.219 nM
hCB1; hCB1 Gi1
  RE, relative efficacy: 1.98
hCB1; [20]
  EC50: 0.234 nM
hCB1; hCB1 Gi2
  RE, relative efficacy: 1.89
hCB1; [21]
  EC50: 0.28 nM
hCB1; hCB1 Gi2 pEC50 [95% CI], Gi2 sensor
  EC50: 0.288 nM
hCB1; [22]
  EC50: 0.288 nM
hCB1; hCB1 GoB
  RE, relative efficacy: 2.24
hCB1; [23]
  EC50: 0.347 nM
hCB1; hCB1 Gz
  RE, relative efficacy: 0.77
hCB1; hCB1 ßarr2 + GRK2
  RE, relative efficacy: 1.16
hCB2 [4]; [6]
  Emax: 30%
hCB2 [4]; [7]
  Emax: 74%
hCB2 [4]; [8]
  Emax: 61%
hCB2 [4]; [9]
  Emax: 59%
hCB2 [4]; [24]
  Emax: 52%
hCB2 [4]; hCB2 Barr2 + GRK2 pEC50 [95% CI]
  EC50: 4.17 nM
hCB2 [4]; hCB2 Gi1
  RE, relative efficacy: 0.29
hCB2 [4]; hCB2 Gi1 EC50 [95% CI]
  EC50: 3.55 nM
hCB2 [4]; hCB2 Gi2
  RE, relative efficacy: 0.40
hCB2 [4]; hCB2 Gi2 pEC50 [95% CI]
  EC50: 1.62 nM
hCB2 [4]; hCB2 GoB pEC50 [95% CI]
  EC50: 2.63 nM
hCB2 [4]; hCB2 GoB
  RE, relative efficacy: 0.40
hCB2 [4]; hCB2 Gz EC50 [95% CI]
  EC50: 2.6 nM
hCB2 [4]; hCB2 Gz pEC50 [95% CI]
  EC50: 2.63 nM
hCB2 [4]; hCB2 Gz
  RE, relative efficacy: 0.22
hCB2 [4]; hCB2 ßarr2 + GRK2
  RE, relative efficacy: 0.92

## COC(=O)C(C)(NC(=O)c1cc(C)n(-c2cccc(C(F)(F)F)c2)n1)c1cccs1 (stereo not shown) [‘4042]
C56BL/6 mice [1]
  tail flick latency of co-injection with morphine (3.0 mg/kg, i.p.) versus morphine alone: significantly longer tail flick latencies
  analgesic effect under CB1R knockout or AM251 (5.0 mg/kg) pre-treatment: completely blocked
  lowest dose with significant analgesia (latencies above baseline): 0.1 mg/kg
C56BL/6 mice [1]; tail flick or Hargreaves assays
  decrease of analgesic effects by CB2R knockout or SR-144528 (1.0 mg/kg): neither
C56BL/6 mice [2]
  cataleptic behavior: did not induce cataleptic behavior
  concentration window between anti-allodynia or analgesia versus catalepsy and sedation, maximum: up to a twenty-fold
C56BL/6 mice [2]; mouse, in vivo
  concentration window between anti-allodynia or analgesia versus catalepsy and sedation, typical: five- to ten-fold
  dose at which catalepsy was recorded: > 1.0 mg/kg
C56BL/6 mice [2]; typical
  window between analgesia and both sedation and catalepsy: 5–10 fold
C56BL/6 mice [3]
  hypothermia compared to baseline and vehicle: induced hypothermia
hCB1; [10]
  Emax: 72%
hCB1; [11]
  Emax: 64%
hCB1; [12]
  Emax: 105%
hCB1; [13]
  Emax: 102%
hCB1; [14]
  Emax: 101%
hCB1; [15]
  Emax: 103%
hCB1; [16]
  Emax: 97%
hCB1; [17]
  EC50: 3.63 nM
hCB1; hCB1 G13
  RE, relative efficacy: 0.91
hCB1; [18]
  EC50: 2.1 nM
hCB1; hCB1 G13 pEC50 [95% CI], G13 sensor
  EC50: 2.04 nM
hCB1; hCB1 G15
  RE, relative efficacy: 0.74
hCB1; [19]
  EC50: 0.372 nM
hCB1; hCB1 Gi1
  RE, relative efficacy: 0.97
hCB1; [25]
  EC50: 0.48 nM
hCB1; hCB1 Gi2
  RE, relative efficacy: 1.01
hCB1; [21]
  EC50: 0.56 nM
hCB1; [26]
  EC50: 0.64 nM
hCB1; [22]
  EC50: 0.631 nM
hCB1; hCB1 GoB
  RE, relative efficacy: 1.04
hCB1; [23]
  EC50: 0.427 nM
hCB1; hCB1 Gz
  RE, relative efficacy: 0.62
hCB1; hCB1 ßarr2 + GRK2
  RE, relative efficacy: 0.81
hCB2 [4]; [6]
  Emax: 33%
hCB2 [4]; [7]
  Emax: 82%
hCB2 [4]; [8]
  Emax: 70%
hCB2 [4]; [9]
  Emax: 61%
hCB2 [4]; [24]
  Emax: 56%
hCB2 [4]; hCB2 Barr2 + GRK2 EC50 [95% CI]
  EC50: 5.5 nM
hCB2 [4]; hCB2 Gi1
  RE, relative efficacy: 0.63
hCB2 [4]; hCB2 Gi1 EC50 [95% CI]
  EC50: 2.7 nM
hCB2 [4]; hCB2 Gi1 pEC50 [95% CI]
  EC50: 2.63 nM
hCB2 [4]; hCB2 Gi2
  RE, relative efficacy: 0.59
hCB2 [4]; hCB2 Gi2 pEC50 [95% CI]
  EC50: 1.26 nM
hCB2 [4]; hCB2 GoB pEC50 [95% CI]
  EC50: 2.51 nM
hCB2 [4]; hCB2 GoB
  RE, relative efficacy: 0.47
hCB2 [4]; hCB2 Gz EC50 [95% CI]
  EC50: 1.36 nM
hCB2 [4]; hCB2 Gz
  RE, relative efficacy: 0.38
hCB2 [4]; hCB2 ßarr2 + GRK2
  RE, relative efficacy: 0.82
hCB2 [5]
  Emax: 29%

## COC(=O)C(NC(=O)c1cc(C)n(-c2cccc(C(F)(F)F)c2)n1)c1cccs1 (stereo not shown) [‘60154]
hCB1; [13]
  Emax: 92%
hCB1; [15]
  Emax: 100%
hCB1; [16]
  Emax: 121%
hCB1; [25]
  EC50: 2.5 nM
hCB1; [20]
  EC50: 25.1 nM
hCB1; [26]
  EC50: 18.4 nM
hCB1; hCB1 Gz EC50 [95% CI], Gz sensor
  EC50: 17.5 nM
hCB2 [5]
  Emax: 31%
